The term IC50 denotes the concentration that gives 50% inhibition.

The subject of data set [1] is human coronary artery smooth muscle cells. In words: Antiproliferative effects of PX867 on cultured human coronary artery smooth muscle cells. In kind it is cell-based. The source says: A PI3 kinase inhibitor can affect restinosis when administered by local or systemic delivery alone or in combination with sirolimus. FIGS. 87 and 88 illustrate the antiproliferative effects of PX867 on cultured human coronary artery smooth muscle cells alone (FIG. 87) or in combination with sirolimus (FIG. 88). […] Curve 8702 illustrates the percent inhibition for various concentrations. In FIG. 88, the six curves 8802, 8804, 8806, 8808, 8810 and 8812 represent various concentrations of PX867 with various concentrations of sirolimus. […] More specifically, curve 8812 illustrates the percent inhibition for a 240 nM PX-867 concentration. […] This may be compared to curve 8804 which represents a 15 nM PX-867 concentration. As one can see, the percent inhibition increases as the concentration of sirolimus increases. Accordingly, a potent PI3 kinase inhibitor, such as PX-867, can improve the inhibition of coronary artery smooth muscle cell proliferation either as a stand alone treatment or via combination with another restenotic agent, such as sirolimus.

The procedure of data set [2]:
The concentrations are determined by liquid chromatography and are presented as weight by volume figures.
In making the first formulation, 100 mg of paclitaxel is added to 400 μl of ethanol in a pre-weighed 20 ml scintillation vial. The mixture of paclitaxel and ethanol is vortexed and heated in a 60 degree C. bath for ten minutes. Once the drug is completely solubilized, 20 ml of PEG 400 is then added to make the final paclitaxel concentration 5 mg/ml. […] In a separate experiment, a series of 20 ml scintillation vials containing Vitamin E TPGS are heated or warmed up in a 50 degree C. water bath for ten minutes. Concurrently, distilled water is also warmed in a 50 degree C. water bath. Once the Vitamin E TPGS was melted in each vial, the distilled water is added into the Vitamin E TPGS vials and vortexed for one minute and left to stand in the water bath for two hours. The final concentrations of Vitamin E TPGS in water were one, five and fifteen percent. The paclitaxel stock solution (5 mg/ml) described herein was then mixed with the Vitamin E TPGS solutions to make the final paclitaxel formulations.

Data set [3] has as its system human coronary artery smooth muscle cell. Nature of the data set: Inhibition of human coronary artery smooth muscle cell proliferation by trichostatin A, cell culture. Type of data set: cell-based. The settings on record: in vitro cell culture; read-out: anti-proliferative IC50. The source says: FIG. 51 is a graph of the inhibition of coronary artery smooth muscle cells by trichostatin A in a cell culture study.

Data set [4] concerns tumor cell lines. Particulars: Woo et al. 2002; cited from earlier work.
Data set [5] concerns human coronary artery smooth muscle cells. In words: Anti-proliferative activity in non-synchronized cultured human coronary artery smooth muscle cells stimulated with two percent fetal bovine serum. In kind it is cell-based. The settings on record: agent added to cells treated with rapamycin. The source says:
The multiple curves represent various concentrations of mycophenolic acid ranging from zero to one thousand nanomolar concentrations.
FIG. 58 illustrates, in graphical format, the anti-proliferative activity of cladribine in non-synchronized cultured human coronary artery smooth muscle cells stimulated with two percent fetal bovine serum.
The multiple curves represent various concentrations of cladribine ranging from zero to nine hundred nanomolar concentrations.

The test system is the same in data set [6]. In words: Anti-proliferative activity in synchronized cultured human coronary artery smooth muscle cells stimulated with two percent fetal bovine serum. In kind it is cell-based. The settings on record: for effect of the added agent on the anti-proliferative rapamycin dose response curve: agent added to cells treated with rapamycin. The source says:
(§1) The multiple curves represent various concentrations of topotecan ranging from zero to three hundred nanomolar concentrations.
(§2) The multiple curves represent various concentrations of etoposide ranging from zero to eight hundred nanomolar concentrations.
The multiple curves represent various concentrations of Panzem® ranging from zero to 100 micromolar concentrations.

In data set [7] the test system is human coronary artery smooth muscle cell. Nature of the data set: MTS assay of Panzem®. Type of data set: cell-based. Particulars: concentrations up to 30,000.00 nanomolar. The source says:
Typically, a control is utilized to determine baseline toxicity.
In general terms: Tetrazolium dyes change colour on reduction, which living cells bring about.

Data set [8] in a line: Cell viability assay (cytotoxicity). Type of data set: cell-based.
Excerpt: as §1, §2

The nature of data set [9]: Drug concentration in liquid formulations (liquid chromatography, HPLC assay). In kind it is physicochemical.
Data set [10] in a line: Porcine drug elution PK study of the dual drug eluting coating. Type of data set: in vivo. Particulars: after eight (8) days of implantation; single-layer configuration of FIG. 83. The source says: Another critical parameter for the performance of the thrombus resistance of a device coated with cilostazol is the duration of the drug release from the coating. This is of particular significance in the two weeks after device implantation. In the porcine drug elution PK studies of the dual drug eluting coating, both cilostazol and sirolius were slowly released from the coating, resulting in a sustained drug release profile. The purpose of the porcine PK study is to assess the local pharmacokinetics of a drug eluting stent at a given implantation time. Normally three stents are implanted in three different coronary arteries in a pig for a given time point and then retrieved for total drug recovery analysis. The stents are retrieved at predetermined time points; namely, 1, 3 and 8 days. The stents are extracted and the total amount of drug remaining on the stents is determined by analysis utilizing HPLC (high performance liquid chromatography) for total drug amount. The difference between the original amount of drug on the stent and the amount of drug retrieved at a given time represents the amount of drug released in that period. The continuous release of drug into surrounding arterial tissue is what prevents the neointimal growth and restenosis in the coronary artery. A normal plot represents the percentage of total drug released (%, y-axis) vs. time of implantation (day, x-axis). […]

Data set [11] is described as follows: In vitro release of sirolimus and cilostazol from stent coating. Type of data set: physicochemical. The settings on record: single-layer configuration of FIG. 83.

Each structure is given as a SMILES string.

For the compound `COC[C@H]1OC(=O)/C(=C\N2CCCC2)C2=C(O)C(=O)C3=C([C@H](OC(C)=O)C[C@]4(C)C(=O)CC[C@@H]34)[C@]21C` [PX-867], in data set [1] (PX867 alone, concentration of about 10^−6), the “inhibition of coronary artery smooth muscle cell proliferation” value was “close to one hundred percent inhibition”. In addition, the “combination effect with sirolimus on percent inhibition” value in [1] (PX-867 15-240 nM with various concentrations of sirolimus) is “strong synergistic effect between PX-867 and sirolimus”.
Turning to `CC(=O)O[C@H]1C(=O)[C@@]2(C)[C@H]([C@H](OC(=O)c3ccccc3)[C@]3(O)C[C@H](OC(=O)[C@H](O)[C@@H](NC(=O)c4ccccc4)c4ccccc4)C(C)=C1C3(C)C)[C@]1(OC(C)=O)CO[C@@H]1C[C@@H]2O` [paclitaxel], in data set [2], the “concentration of paclitaxel in a true liquid formulation” value is “up to 2.5 mg/ml” and the “concentration relative to the solubility of paclitaxel in water” value was “about 1000 fold”.
As for `CC(/C=C/C(=O)NO)=C\[C@@H](C)C(=O)c1ccc(N(C)C)cc1` [trichostatin A], in data set [3], the IC50 is approximately 6 nM. Moreover, the “anti-proliferative IC50's” value in data set [4] is “low nM range”.
As to `COc1c(C)c2c(c(O)c1C/C=C(\C)CCC(=O)O)C(=O)OC2` [mycophenolic acid], the “effect of the added agent on the anti-proliferative rapamycin dose response curve” value (“effect of the added agent” for short) in data set [5] was “potentiates the anti-proliferative activity of rapamycin”.
On the same count and under the same terms, to `Nc1nc(Cl)nc2c1ncn2[C@H]1C[C@H](O)[C@@H](CO)O1` [Cladribine, 2-chlorodeoxyadenosine] belongs “potentiate the anti-proliferative activity of rapamycin”.
In the case of `COc1cc2c(cc1O)CC[C@@H]1[C@@H]2CC[C@]2(C)[C@@H](O)CC[C@@H]12` [Panzem®, 2-methoxyestradiol], in data set [6], the “effect of the added agent” value was “increases the percent of inhibition of rapamycin alone”. The “inhibition of human coronary artery smooth muscle cell proliferation in vitro” value in [6] (agent alone) was “extremely effective inhibitor”. For the same compound, the “human coronary artery smooth muscle cell survival (MTS assay)” value in data set [7] was “do not reduce human coronary artery smooth muscle cell survival”.
As to `COc1cc([C@@H]2c3cc4c(cc3[C@@H](O[C@@H]3O[C@@H]5CO[C@@H](C)O[C@H]5[C@H](O)[C@H]3O)[C@H]3COC(=O)[C@H]23)OCO4)cc(OC)c1O` [etoposide], the “cytotoxicity in cell viability assay” value in data set [8] (at concentrations up to ten micromolar) was “non-cytotoxic”. The “effect of the added agent” value in data set [5] is “potentiate the anti-proliferative activity of rapamycin”.
Consider `CO[C@H]1C[C@@H]2CC[C@@H](C)[C@@](O)(O2)C(=O)C(=O)N2CCCC[C@H]2C(=O)O[C@H]([C@H](C)C[C@@H]2CC[C@@H](O)[C@H](OC)C2)CC(=O)[C@H](C)/C=C(\C)[C@@H](O)[C@@H](OC)C(=O)[C@H](C)C[C@H](C)/C=C/C=C/C=C/1C` [rapamycin], for which, in [9] (4 mg/ml liquid formulation with PEG 200), the “concentration relative to the solubility of sirolimus in water” value is on record as “about four hundred to about one thousand times higher”. Besides, the “drug remaining in the drug coating” value in [10] is listed as approximately 80%.
For the compound `CO[C@H]1C[C@@H]2CC[C@@H](C)[C@@](O)(O2)C(=O)C(=O)N2CCCC[C@H]2C(=O)O[C@H]([C@H](C)C[C@@H]2CC[C@@H](OC(=O)C(C)(CO)CO)[C@H](OC)C2)CC(=O)[C@H](C)/C=C(\C)[C@@H](O)[C@@H](OC)C(=O)[C@H](C)C[C@H](C)/C=C/C=C/C=C/1C` [CCI-779], the “concentration in the final solution (HPLC assay)” value in [9] (ethanol, Vitamin E TPGS and water, ethanol less than two percent) was 15000 µg/mL.
For the compound `CC[C@@]1(O)C(=O)OCc2c1cc1n(c2=O)Cc2cc3c(CN(C)C)c(O)ccc3nc2-1` [topotecan], the “effect of the added agent” value in data set [6] was “potentiate the anti-proliferative activity of rapamycin”. Besides, the “cytotoxicity in cell viability assay” value in data set [8] (at concentrations up to one micromolar) is “non-cytotoxic”.
Take `O=C1CCc2cc(OCCCCc3nnnn3C3CCCCC3)ccc2N1` [cilostazol, 6[4-(1-cyclohexyl-1H-tetrazol-5-yl)-butoxy]-3,4-dihydro-2-(1H)-quinolinone]: the “in vitro release from the coating” value in data set [11] is recorded as approximately 35%. For the same compound, the “drug remaining in the drug coating” value in data set [10] is on record as approximately 80%.

Values taken from patent US8557272B2, “Device for local and/or regional delivery employing liquid formulations of therapeutic agents” (Cordis Corporation, priority 2004, dated 2013).
